Measured values taken from patent US4456601A, “3-Chloro-pregnane derivatives and a process for the preparation thereof” (Richter Gedeon Vegyeszeti Gyar Rt., priority 1981, dated 1984).
Like-named read-outs stand apart in the source and are kept apart here.

Key:
cotton granuloma [1] = test: Cotton granuloma test (systemic antiphlogistic effect); format: in vivo
Excerpt: (§1) Systemic antiphlogistic effect
(c) Cotton granuloma test [C. A. Winter et al: J. Pharm. Exp. Therap. 141, 369 (1963)]

granuloma pouch [2] = test: Local pouch test according to Selye (local antiphlogistic effect); format: in vivo
Excerpt: (§2) Local antiphlogistic effect
(a) Local pouch test according to Selye [Bianchetti et al.: Arzneim. Forsch. 27, 2096 (1977)]

[3] = tested on: ear inflammation provoked by croton oil; test: Inhibition of ear inflammation provoked by croton oil (local antiphlogistic effect); format: in vivo
Excerpt: as §2
(c) Inhibition of ear inflammation provoked by croton oil [Tonelli et al.: Endocrinology 77, 625 (1965)]

cotton granuloma [4] = test: Local cotton granuloma test (local antiphlogistic effect); format: in vivo
Excerpt: as §2
(b) Local cotton granuloma test [B. Silvestrini: Arzneim. Forsch. 19, 30 (1969)]

granuloma pouch [5] = test: Granuloma pouch test according to Selye (systemic antiphlogistic effect); format: in vivo
Excerpt: as §1
(b) Granuloma pouch test according to Selye [J. Selye: Recent Progr. Horm. Res. 8, 117 (1953)]

[6] = tested on: carrageenin-induced planter oedema; test: Inhibition of carrageenin-induced planter oedema (systemic antiphlogistic effect); format: in vivo
Excerpt: as §1
(a) Inhibition of carrageenin-induced planter oedema [Winter et al.: J. Pharm. Exp. Therap. […]]

[7] = target: T1, rat liver glucocorticoid receptors (Rattus norvegicus, UniProt P06536); test: Affinity to rat liver glucocorticoid receptors (method of Baxter et al.); format: binding
T1 construct: from tissue; host or cells: rat liver
T1 sequence (P06536 1-795): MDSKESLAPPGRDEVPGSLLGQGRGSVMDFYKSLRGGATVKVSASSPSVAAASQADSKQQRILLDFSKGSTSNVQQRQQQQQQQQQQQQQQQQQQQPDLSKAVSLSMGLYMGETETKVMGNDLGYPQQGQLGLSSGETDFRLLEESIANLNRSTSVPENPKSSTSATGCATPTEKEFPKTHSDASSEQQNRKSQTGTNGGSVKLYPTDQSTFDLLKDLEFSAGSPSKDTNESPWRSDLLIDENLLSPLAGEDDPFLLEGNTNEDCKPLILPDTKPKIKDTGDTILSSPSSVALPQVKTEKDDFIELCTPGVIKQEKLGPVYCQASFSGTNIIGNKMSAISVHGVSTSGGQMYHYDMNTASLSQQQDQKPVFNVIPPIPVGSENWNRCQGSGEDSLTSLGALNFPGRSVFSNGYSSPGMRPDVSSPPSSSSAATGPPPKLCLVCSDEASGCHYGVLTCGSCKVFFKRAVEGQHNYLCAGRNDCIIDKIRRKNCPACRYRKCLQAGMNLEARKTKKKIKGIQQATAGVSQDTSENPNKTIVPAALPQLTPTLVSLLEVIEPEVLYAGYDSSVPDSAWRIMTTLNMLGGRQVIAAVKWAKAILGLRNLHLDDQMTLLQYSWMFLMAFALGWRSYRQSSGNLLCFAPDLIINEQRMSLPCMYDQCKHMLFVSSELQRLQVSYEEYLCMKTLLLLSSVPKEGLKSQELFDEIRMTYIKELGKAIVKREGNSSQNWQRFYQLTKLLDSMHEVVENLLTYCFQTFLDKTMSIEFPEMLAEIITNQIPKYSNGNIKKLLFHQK
Excerpt: A. Munck and K. Leung: "Receptors and Mechanism of Action of Steroid Hormones", Ed.

thymus weight [8] = test: Thymus involution (reduction of thymus weight) in rats; format: in vivo
Protocol: (§3) It is known that glucocorticoids cause thymus involution [O. Greengard, R. Machovich: "Hydrocortisone Regulation of Thymidine Kinase in Thymus Involution and Hematopoietic Tissues", Biochem. Biophys. Acta 286, 382-388 (1972)], 50% reduction of thymus weight was observed on chickens with a dose of 0.01 mg/100 g and on rats with a dose of 0.001 mg/100 g for both TCA and 3-chloro-TCA.

thymus weight [9] = test: Thymus involution (reduction of thymus weight) in chickens; format: in vivo
Protocol: as §3

[10] = target: T1, rat liver glucocorticoid receptors; details: on the basis of literature data (Munck and Leung); read-out: apparent dissociation constant; cited from earlier work
[11] = rat liver glucocorticoid receptors, read-out: apparent dissociation constant

| Kd [7, 11] | SMILES | Inhibition % (cotton granuloma [1]; 0.5 mg/kg s.c.) | Inhibition % (cotton granuloma [1]; 1.5 mg/kg s.c.) | Inhibition % (granuloma pouch [2]; 0.033 mg/pouch) | Inhibition % (granuloma pouch [2]; 0.10 mg/pouch) | Inhibition % ([3]; 0.02 mg/ml) | Inhibition % ([3]; 0.10 mg/ml) | Inhibition % (cotton granuloma [4]; 0.033 mg/cotton) | Inhibition % (cotton granuloma [4]; 0.10 mg/cotton) | Inhibition % (granuloma pouch [5]; 0.5 mg/kg s.c.) | Inhibition % (granuloma pouch [5]; 1.5 mg/kg s.c.) | Inhibition % ([6]; 2 mg/kg p.o.) | Inhibition % ([6]; 6 mg/kg p.o.) | dose giving 50% reduction of thymus weight (thymus weight [8]) | dose giving 50% reduction of thymus weight (thymus weight [9]) | further results |
| --- | --- | --- | --- | --- | --- | --- | --- | --- | --- | --- | --- | --- | --- | --- | --- | --- |
|  | CC(=O)OCC(=O)[C@@]12OC(C)(C)O[C@@H]1C[C@H]1[C@@H]3CC=C4C=C(Cl)C=C[C@]4(C)[C@@]3(F)[C@@H](O)C[C@@]12C [3-Chloro-TCA-21-acetate, 3-chloro-9α-fluoro-11β,16α,17α,21-tetrahydroxy-pregna-1,3,5-triene-20-one-16,17-acetonide-21-acetate] | 33.0% | 91.0% | 12.4% | 26.3% | 10.0% | 17.8% | 52.4% | 35.3% | 56.6% | 73.3% | 8.9% | 9.6% |  |  |  |
| 60 nM | CC1(C)O[C@@H]2C[C@H]3[C@@H]4CC(Br)=C5C=C(Cl)C=C[C@]5(C)[C@@]4(F)[C@@H](O)C[C@]3(C)[C@]2(C(=O)CO)O1 [3-chloro-6-bromo-TCA, 3-chloro-6-bromo-9α-fluoro-11β,16α,17α,21-tetrahydroxy-pregna-1,3,5-triene-20-one-16,17-acetonide] |  |  |  |  |  |  |  |  |  |  |  |  |  |  |  |
| 30 nM | CC1(C)O[C@@H]2C[C@H]3[C@@H]4CC=C5C=C(Cl)C=C[C@]5(C)[C@@]4(F)[C@@H](O)C[C@]3(C)[C@]2(C(=O)CO)O1 [Example 3-Chloro-TCA, 3-chloro-9α-fluoro-11β,16α,17α,21-tetrahydroxy-pregna-1,3,5-triene-20-one-16,17-acetonide] | 22.0% | 26.0% | 26.0% | 32.3% | 30.0% | 52.9% | 24.1% | 51.4% | 90.8% | 90.1% | 30.2% | 38.7% | 0.001 mg/100 g | 0.01 mg/100 g |  |
| 25 nM | CC1(C)O[C@@H]2C[C@H]3[C@@H]4CC(F)=C5C=C(Cl)C=C[C@]5(C)[C@@]4(F)[C@@H](O)C[C@]3(C)[C@]2(C(=O)CO)O1 [Example 3-chloro-FCA, 3-chloro-6,9α-difluoro-11β,16α,17α,21-tetrahydroxy-pregna-1,3,5-triene-20-one-16,17-acetonide] |  |  |  |  |  |  |  |  |  |  |  |  |  |  |  |
|  | CC1(C)O[C@@H]2C[C@H]3[C@@H]4CCC5=CC(=O)C=C[C@]5(C)[C@@]4(F)[C@@H](O)C[C@]3(C)[C@]2(C(=O)CO)O1 [TCA, 9α-fluoro-11β,16α,17α,21-tetrahydroxy-pregna-1,4-diene-3,20-dione-16,17-acetonide, reference compound] |  |  |  |  |  |  |  |  |  |  |  |  | 0.001 mg/100 g | 0.01 mg/100 g | Kd [10]: 10 nM |
|  | CC1(C)O[C@@H]2C[C@H]3[C@@H]4C[C@H](F)C5=CC(=O)C=C[C@]5(C)[C@@]4(F)[C@@H](O)C[C@]3(C)[C@]2(C(=O)CO)O1 [fluocinolon-acetonide, 6α,9α-difluoro-11β,16α,17α,21-tetrahydro-pregna-1,4-diene-3,20-dione-16,17-acetonide, reference compound] |  |  |  |  |  |  |  |  |  |  |  |  |  |  | Kd [7]: 15 nM |
